Measurements: patent US20140100217A1, “[…] OF PROLINE-RICH PEPTIDES AND THEIR USE” (priority 2012, published 2014)
No end group written: not given here.

Key:
VASP-EVH1 domain [1] = biological target: T1, VASP-EVH1 domain (Homo sapiens, UniProt P50552); assay: Binding affinity of ligand peptides by kinetic Biacore method
T1 construct: ligand peptides with the VASP-EVH1 domain in solution
Experimental: With the aid of the synthetic compound 85, ligand peptides with partially or completely replaced proline sequences were synthesized by way of example and investigated for their interaction with the EVH1 domain (pp=component 85). […] The binding affinities were determined by means of NMR titration, the kinetic Biacore method or by means of fluorescence titration.

VASP-EVH1 domain [2] = biological target: T1, VASP-EVH1 domain; format: binding

T1 sequence (P50552 2-113): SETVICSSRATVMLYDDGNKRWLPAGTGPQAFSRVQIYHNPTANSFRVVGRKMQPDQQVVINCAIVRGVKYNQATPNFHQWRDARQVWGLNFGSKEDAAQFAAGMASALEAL

| Compound | Kd (VASP-EVH1 domain [1]) [µM] | binding affinity (KD) (VASP-EVH1 domain [2]) |
| --- | --- | --- |
| CC(C)C[C@H](NC(=O)[C@H](CCC(=O)O)NC(=O)[C@H](CC(=O)O)NC(=O)[C@H](CCC(=O)O)NC(=O)[C@@H](NC(=O)[C@@H]1CCCN1C(=O)[C@@H]1CC[C@@H]2C=C[C@@H](C)[C@H](NC(=O)[C@@H]3CCCN3C(=O)[C@H](Cc3c[nH]c4ccccc34)NC(=O)[C@H](CCC(=O)O)NC(=O)[C@H](Cc3ccccc3)NC(=O)[C@@H](N)CO)C(=O)N21)[C@@H](C)O)C(=O)O [SFEWPppPTEDEL (II)] | 3.7 to 12.5 | – |
| FPPPPT [FPPPPT] | – | measurable affinity for the VASP-EVH1 domain could no longer be determined |
